One assay has as its system Neospora caninum. The assay is described as follows: Antimicrobial activity against Neospora caninum up to 1 ug/ml. Type of assay: functional, organism-based.
Assay [1] deals with Plasmodium falciparum. Description: Antiplasmodial activity against Plasmodium falciparum K1. Type of assay: functional, organism-based.
Assay [2] concerns Plasmodium falciparum. Description: Antiplasmodial activity against Plasmodium falciparum NF54. Type of assay: functional, organism-based.
The subject of assay [3] is Trypanosoma brucei rhodesiense. The assay is described as follows: Antitrypanosomal activity against Trypanosoma brucei rhodesiense STIB900. Type of assay: functional, organism-based.
For the next assay, the system named is Trypanosoma cruzi. Description: Antitrypanosomal activity against Trypanosoma cruzi Tulahuen C4. Type of assay: functional, organism-based.
Assay [4] relates to Leishmania donovani. The assay is described as follows: Antileishmanial activity against Leishmania donovani MHOM-ET-67/L82 amastigotes by axenic assay. Type of assay: functional, organism-based.
For assay [5], the system named is Giardia intestinalis. The assay is described as follows: Antimicrobial activity against Giardia duodenalis WB. Type of assay: functional, organism-based.
The test system of assay [6] is Giardia intestinalis. Description: Antimicrobial activity against Giardia duodenalis G1. Type of assay: functional, organism-based.
The subject of assay [7] is Babesia divergens. The assay is described as follows: Antimicrobial activity against Babesia divergens 1903B. Type of assay: functional, organism-based.
Assay [8] concerns Babesia divergens. The assay is described as follows: Antimicrobial activity against Babesia divergens 4201. Type of assay: functional, organism-based.
The next assay concerns Leishmania major. Description: Antileishmanial activity against Leishmania major amastigotes. Type of assay: functional, organism-based.
Assay [9] deals with Leishmania donovani. Description: Antileishmanial activity against Leishmania donovani promastigotes. Type of assay: functional, organism-based.
Another assay relates to Toxoplasma gondii. Description: Antimicrobial activity against Toxoplasma gondii in normal human foreskin fibroblasts. Type of assay: functional, organism-based.
A further assay deals with Pneumocystis carinii. The assay is described as follows: Antimicrobial activity against Pneumocystis carinii at 0.14 ug/ml in feeder layer cells. Type of assay: functional.
Assay [10] in a line: Inhibition of Plasmodium falciparum ATP6.

Structures are written as SMILES. pIC50: −log10 of the molar value. ≈ marks a conversion by molar mass, not a printed value. Calls of active or inactive are those of the source. The calls are words filed in the database; no cut-off is given here.

One may read the IC50 as the concentration at which inhibition is half-maximal. Read a high IC50 as weaker potency. In general, inhibition refers to the share of the control response that was lost under treatment. As a reminder, the pIC50 is the negative decadic logarithm of the IC50, by convention in mol/L. Low readings indicate a high IC50, high ones a low IC50.

Consider `CC(C)(N)CNC(=O)CC1CC[C@]2(CC1)OC[C@]1(O2)C2CC3CC(C2)CC1C3` (stereo partly specified), for which, in the assay with Neospora caninum, the outcome was inactive. The 50% inhibitory concentration (IC50) in the assay on Plasmodium falciparum [1] worked out at 2.5 µg/mL (≈ 6.4 µM); in the assay with Plasmodium falciparum [2], 4.9 µg/mL (≈ 12.5 µM); in assay [3] it was 0.77 µg/mL (≈ 1.97 µM); in the assay with Trypanosoma cruzi, 13 µg/mL (≈ 33.3 µM); in the assay with Leishmania donovani [4] it was 20 µg/mL (≈ 51.2 µM); in the assay with Giardia intestinalis [5] it was 38 µg/mL (≈ 97.3 µM). Also, the IC50 was 18 µg/mL (≈ 46.1 µM) with Giardia intestinalis [6], 6.7 µg/mL (≈ 17.2 µM) with Babesia divergens [7] and 7.5 µg/mL (≈ 19.2 µM) in the assay with Babesia divergens [8].
Regarding `CCCSc1ccc2[nH]c(NC(=O)OC)nc2c1` [ALBENDAZOLE], the 50% inhibitory concentration (IC50) in the assay with Giardia intestinalis [5] is 0.019 µg/mL (≈ 0.0716 µM); in the assay with Giardia intestinalis [6] it was 0.018 µg/mL (≈ 0.0678 µM).
Consider `C[C@@H]1CC[C@H]2[C@@H](C)C(=O)O[C@@H]3O[C@@]4(C)CC[C@@H]1[C@]32OO4` [ARTEMISININ], for which, in the assay with Neospora caninum, the outcome was inactive. Moreover, the IC50 is 0.002 µg/mL (≈ 0.00708 µM) with Plasmodium falciparum [1]; 0.004 µg/mL (≈ 0.0142 µM) in the assay on Plasmodium falciparum [2]; 25 µg/mL (≈ 88.5 µM) in assay [3]; greater than 30 µg/mL in the assay with Trypanosoma cruzi; 8.8 µg/mL (≈ 31.2 µM) with Leishmania donovani [4]; 65 µg/mL (≈ 230 µM) in the assay with Giardia intestinalis [5]. Further, the IC50 is 49 µg/mL (≈ 174 µM) in the assay with Giardia intestinalis [6]; greater than 10 µg/mL in the assay with Babesia divergens [7]; greater than 10 µg/mL in the assay on Babesia divergens [8]; 8 µg/mL (≈ 28.3 µM) with Leishmania major; 8 µg/mL (≈ 28.3 µM) in the assay with Leishmania donovani [9]; 2.3 µg/mL (≈ 8.15 µM) with Toxoplasma gondii. At 0.14 µg/mL the inhibition with Pneumocystis carinii was 55%. This compound also gave a pIC50 in [10] of 7.10.
In the case of `O=C1C(O)=C([C@H]2CC[C@H](c3ccc(Cl)cc3)CC2)C(=O)c2ccccc21` [ATOVAQUONE], the IC50 was 0.0091 µg/mL (≈ 0.0248 µM) in the assay with Babesia divergens [7] and 0.0087 µg/mL (≈ 0.0237 µM) in the assay with Babesia divergens [8].
In the assay with Trypanosoma cruzi, `O=C(Cn1ccnc1[N+](=O)[O-])NCc1ccccc1` [BENZNIDAZOLE] came in with an IC50 of 0.14 µg/mL (≈ 0.538 µM).
Regarding `C[C@@H]1CC[C@H]2[C@@H](C)C(=O)O[C@@H]3O[C@@]4(C)CC[C@@H]1[C@]32O4` [DEOXYARTEMISININ], the outcome in the assay with Neospora caninum was inactive. Also, the IC50 was greater than 10 µg/mL in the assay on Plasmodium falciparum [1]; greater than 10 µg/mL in the assay with Plasmodium falciparum [2]; 34 µg/mL (≈ 128 µM) in assay [3]; greater than 30 µg/mL with Trypanosoma cruzi; greater than 30 µg/mL with Leishmania donovani [4]; 91 µg/mL (≈ 342 µM) with Giardia intestinalis [5]. Besides, the results for the half-maximal inhibitory concentration (IC50) with Giardia intestinalis [6], in the assay with Babesia divergens [7] and in the assay with Babesia divergens [8] were 28 µg/mL (≈ 105 µM), greater than 10 µg/mL and greater than 10 µg/mL, respectively.
`CCCCCCCCCCCCCCCCOP(=O)([O-])OCC[N+](C)(C)C` [MILTEFOSINE]: the IC50 in the assay with Leishmania donovani [4] is 0.2 µg/mL (≈ 0.491 µM).
As for `CC(C)(N)CNC(=O)C[C@H]1CC[C@]2(CC1)OO[C@]1(O2)C2CC3CC(C2)CC1C3` [OZ277], the outcome in the assay on Neospora caninum was inactive. For the same compound, the IC50 in the assay on Plasmodium falciparum [2] came to 0.00091 µg/mL (≈ 0.00232 µM); in [3] it was 0.56 µg/mL (≈ 1.43 µM); in the assay on Trypanosoma cruzi it was 9.5 µg/mL (≈ 24.2 µM); in the assay with Leishmania donovani [4] it was 24 µg/mL (≈ 61.1 µM); in the assay on Giardia intestinalis [5], 41 µg/mL (≈ 104 µM); in the assay on Giardia intestinalis [6] it was 49 µg/mL (≈ 125 µM). Further, the IC50 with Babesia divergens [7] and in the assay with Babesia divergens [8] was greater than 10 µg/mL each time. The same compound had a negative-log IC50 (pIC50) in assay [10] of 5.11.

These data come from ChEMBL document CHEMBL1155772, “Peroxide bond-dependent antiplasmodial specificity of artemisinin and OZ277 (RBx11160)” (Antimicrob Agents Chemother, 2007).
